Patent US9469831B2, “Lactobacillus plantarum cells with improved resistance to high concentrations of ethanol” (Chr. Hansen A/S, priority 2011, dated 2016)
≈ marks a conversion by molar mass, not a printed value.

Legend:
[1] = test system: Lactobacillus plantarum CHCC14158; assay: D-cycloserine resistance assay (OD600 growth in GJ-5 medium); format: cell-based; details: Lactiplantibacillus plantarum, strain CHCC14158, 24 hours growth at 18° C., vs 0 μg/ml D-cycloserine, read-out: amount of D-cycloserine that reduces the OD600 measured growth with 50%
Procedure: (§1) Medium: The medium is the known Grape Juice GJ-5 medium described in column 20, lines 10 to 20 of U.S. Pat. No. 7,112,346 (Chr. Hansen A/S).
(§2) As described in lines 10 to 20 of U.S. Pat. No. 7,112,346—the GJ-5 medium has the following composition: • Grape juice concentrate 70.0 g • Yeast paste 30.0 g • Tween 80 0.5 g • MnSO4H2O 0.1 g • Tap water 900.0 g
(§3) A Lactobacillus plantarum strain of interest is inoculated into 10 ml GJ-5 medium containing one of the following amounts of D-cycloserine: 0 μg/ml, 10 μg/ml, 20 μg/ml, 30 μg/ml, 50 μg/ml, 70 μg/ml, 100 μg/ml, 150 μg/ml or 200 μg/ml of D-cycloserine. The strain is grown 24 hours at 18° C. in the GJ-5 medium with the different concentrations of D-cycloserine.
(§4) After the 24 hours growth is OD600 measured for all samples.

[2] = test system: Lactobacillus plantarum CHCC14255; assay: as above; format: cell-based; details: Lactiplantibacillus plantarum, strain CHCC14255, 24 hours growth at 18° C., vs 0 μg/ml D-cycloserine, read-out: amount of D-cycloserine that reduces the OD600 measured growth with 50%
Procedure: as §1, §2, §3, §4

[3] = test system: Lactobacillus plantarum CHCC14254; assay: as above; format: cell-based; details: Lactiplantibacillus plantarum, strain CHCC14254, 24 hours growth at 18° C., vs 0 μg/ml D-cycloserine, read-out: amount of D-cycloserine that reduces the OD600 measured growth with 50%
Procedure: as §1, §2, §3, §4

[4] = test system: Lactobacillus plantarum CHCC14158; details: strain CHCC14158; GJ-5 medium with 11% ethanol, 3 days incubation at 25° C.
Procedure: (§5) Medium: The medium is the standard GJ-5 medium as used in Example 1 above.
(§6) A Lactobacillus plantarum cell that has an improved resistance towards ethanol as discussed herein—is herein defined as a Lactobacillus plantarum cell that can grow to an OD600 of at least 0.8 after 3 days incubation at 25° C. in the GJ-5 medium with 11% ethanol.

[5] = test system: Lactobacillus plantarum CHCC14255; details: strain CHCC14255; GJ-5 medium with 11% ethanol, 3 days incubation at 25° C.
Procedure: as §5, §6

[6] = test system: Lactobacillus plantarum CHCC14254; details: strain CHCC14254; GJ-5 medium with 11% ethanol, 3 days incubation at 25° C.
Procedure: as §5, §6

Row | Structure (SMILES) | IC50 [1] [µg/mL] | IC50 [2] [µg/mL] | IC50 [3] [µg/mL] | OD600 reached by growth in presence of ethanol [4] | OD600 reached by growth in presence of ethanol [5] | OD600 reached by growth in presence of ethanol [6]
1 | N[C@@H]1CON=C1O [D-cycloserine, D-4-amino-isoxazolidone] | 60 to 65 (≈ 588 to 637 µM) | ~100 (≈ 979 µM) | ~100 (≈ 979 µM) |  |  | 
2 | CCO [ethanol] |  |  |  | around 0.65 | more than 1 | at least 0.8
